# According to patent US9834534B2, “Neuraminidase inhibitor compounds, compositions and methods for the use thereof in anti-viral treatments” (THE UNIVERSITY OF BRITISH COLUMBIA, priority 2009, dated 2017):
# “And” between values parts separate entries of the source, which are not always exact repeats. Identical values can stand only once. Like-named read-outs stand apart in the source and are kept apart here.
# Columns and labels:
# [1] = target: influenza sialidase (subtype N9) (Influenza A virus, UniProt P03472); assay: biochemical; format: biochemical
# Chain of influenza sialidase (subtype N9) (P03472 whole entry, looked up): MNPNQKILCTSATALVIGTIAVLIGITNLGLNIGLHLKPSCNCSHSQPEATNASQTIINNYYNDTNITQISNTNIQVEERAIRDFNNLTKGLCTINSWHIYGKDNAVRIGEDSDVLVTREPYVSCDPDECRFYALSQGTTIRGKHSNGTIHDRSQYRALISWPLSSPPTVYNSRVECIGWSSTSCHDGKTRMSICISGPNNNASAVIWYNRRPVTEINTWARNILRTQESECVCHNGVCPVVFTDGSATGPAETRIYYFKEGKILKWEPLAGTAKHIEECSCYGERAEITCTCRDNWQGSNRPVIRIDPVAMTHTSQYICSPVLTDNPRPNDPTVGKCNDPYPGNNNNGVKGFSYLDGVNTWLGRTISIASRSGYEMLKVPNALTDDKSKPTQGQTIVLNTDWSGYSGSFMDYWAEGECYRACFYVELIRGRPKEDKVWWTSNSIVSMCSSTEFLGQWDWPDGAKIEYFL
# [2] = tested on: influenza A/Brisbane/10/2007 (H3N2); assay: microbe, parasite or virus in culture; format: cell-based, influenza A virus; settings: for minimal effective concentration: Influenza A virus, H3N2, MDCK, read-out: Cytoprotective effect
# [3] = tested on: influenza A/Denver/1/57 (H1N1); assay: microbe, parasite or virus in culture; format: cell-based, influenza A virus; settings: for minimal effective concentration: Influenza A virus, H1N1, MDCK, read-out: Cytoprotective effect
# A/Brisbane NML (H3N2) = format: cell-based, influenza A virus
# A/Denver (H1N1) = format: cell-based, influenza A virus
# A/New Caledonia (H1N1) = format: cell-based, influenza A virus
# [4] = tested on: influenza B/HongKong/5/72; assay: microbe, parasite or virus in culture; format: cell-based, influenza B virus; settings: for minimal effective concentration: Influenza B virus, MDCK, read-out: Cytoprotective effect
# [5] = tested on: influenza B/Florida/04/06; format: cell-based; settings: for Relative activity: relative to Zanamivir
# [6] = tested on: influenza A virus, A/HK/1/68 (H3N2); parameters: species or system Balb/C mice (Mus musculus); settings: mouse, in vivo
# MDCK cells = settings: dog
# [7] = 1 mg/kg; for % weight loss mean +/− SD: mouse, in vivo; for number of animals remaining: n = 5
# [8] = tested on: B/Florida wt (B/Florida/4/2006); assay: microbe, parasite or virus in culture; format: cell-based; settings: Influenza B virus, read-out: IC50 B/Florida wt
# [9] = tested on: Auckland pH1N1 wt (A/Auckland/3/2009); assay: microbe, parasite or virus in culture; format: cell-based; settings: Influenza A virus, read-out: IC50 Auckland pH1N1 wt
# Fukui H3N2 wt = assay: microbe, parasite or virus in culture; format: cell-based; settings: Influenza A virus, H3N2, read-out: IC50 Fukui H3N2 wt
# sH1N1/01 wt = assay: microbe, parasite or virus in culture; format: cell-based; settings: Influenza A virus, read-out: IC50 sH1N1/01 wt
# sH1N1/08 wt = assay: microbe, parasite or virus in culture; format: cell-based; settings: Influenza A virus, read-out: IC50 sH1N1/08 wt
# B/Perth wt = assay: microbe, parasite or virus in culture; format: cell-based; settings: Influenza B virus, read-out: sensitivity to inhibitors, B/Perth wt
# H1N1 OsR = H1N1 OsR (Influenza A virus (H1N1), UniProt Q289M4); settings: for ki: pH 7.6
# Chain of H1N1 OsR (Q289M4 whole entry, looked up): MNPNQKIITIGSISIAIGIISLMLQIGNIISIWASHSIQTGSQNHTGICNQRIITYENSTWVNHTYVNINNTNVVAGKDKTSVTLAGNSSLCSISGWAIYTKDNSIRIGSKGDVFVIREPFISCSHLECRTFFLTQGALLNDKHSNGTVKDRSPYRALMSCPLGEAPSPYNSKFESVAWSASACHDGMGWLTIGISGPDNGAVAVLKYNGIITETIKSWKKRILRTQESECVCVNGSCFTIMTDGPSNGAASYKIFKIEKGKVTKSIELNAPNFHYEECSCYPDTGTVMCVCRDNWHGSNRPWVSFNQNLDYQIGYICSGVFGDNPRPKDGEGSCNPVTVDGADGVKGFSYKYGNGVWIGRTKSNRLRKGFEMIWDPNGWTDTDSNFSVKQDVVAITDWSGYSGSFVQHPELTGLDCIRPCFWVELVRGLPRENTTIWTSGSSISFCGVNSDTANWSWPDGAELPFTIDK
# [10] = tested on: Sol Isl sH1N1 wt (A/Solomon Islands/3/2006); assay: microbe, parasite or virus in culture; format: cell-based, influenza A virus; settings: read-out: IC50 Sol Isl sH1N1 wt
# [11] = Balb/C, mouse, in vivo, 1 mg/kg
# in vivo = settings: Balb/C, mouse, 1 mg/kg; for half-life: T1/2
Compound,half time for the full inactivation of the sialidase [1],"Kd ([1]; 30° C., pH 7.6) [µM]",Cytoprotective effect [2] [ng/mL],minimal effective concentration [2] [µg/mL],minimal effective concentration [3] [µg/mL],minimal effective concentration [4] [µg/mL],Cytoprotective effect ([5]; Replicate 2) [ng/mL],Toxicity (MDCK cells) [µg/mL],IC50 (Fukui H3N2 wt) [µM],IC50 (sH1N1/01 wt) [µM],ki/Kd ([1]; pH 7.6) [min⁻¹ mM⁻¹],Relative activity [2],Relative toxicity (MDCK cells),Relative activity [3],Relative activity [4],also measured
"CC(=O)N[C@@H]1[C@@H](N)[C@@H](F)[C@](F)(C(=O)O)O[C@H]1[C@H](O)[C@H](O)CO [Compound 4, (2R,3R)-4-Amino-2,4-dideoxy-2,3-difluorosialic acid]",ca. 10 min,4,9.2,0.0069,0.888,1.78,1074,3.6,,,,,,,,"half time for the full reactivation of the inactivated sialidase [1]: 4.8 h; Ki ([1]; 30° C., pH 7.6): 0.093 µM and 0.0932 µM; khyd ([1]; 30° C., pH 7.6): 0.0024 min⁻¹; concentration of antiviral at which a confluent monolayer of MDCK cells was protected (A/Brisbane NML (H3N2)): 51.415^B μM; concentration of antiviral at which a confluent monolayer of MDCK cells was protected (A/Denver (H1N1)): <12.854^A μM; concentration of antiviral at which a confluent monolayer of MDCK cells was protected (A/New Caledonia (H1N1)): <12.854^A μM; Cytoprotective effect ([5]; Replicate 1): 947 ng/mL; survival compared to the untreated control group [6]: somewhat extend survival; % weight loss mean +/− SD ([6]; 1 mg/kg): 16.02 +/− 2.07%; % weight loss mean +/− SD [7]: 2.68 +/− 1.76%; number of animals remaining [7]: 5"
"CC(=O)NC1C(NC(=N)N)C(F)C(F)(C(=O)O)OC1[C@H](O)[C@H](O)CO (stereo partly drawn) [4-G3Feq diF SA, 5-Acetamido-2,4,5-trideoxy-2α, 3β-difluoro-4-guanidino-α-D-erythro-L-gluco-nonulopyranosonate]",,,,,,,,,24.9,0.0126,,,,,,IC50 [8]: 0.002 µM; IC50 [9]: 0.004 µM; IC50 (sH1N1/08 wt): 0.0068 µM; IC50 (B/Perth wt): 0.0045 µM; Half life for reactivation (H1N1 OsR): 9 h; ki (H1N1 OsR): 1.5 ± 0.16 min⁻¹
"CC(=O)NC1C(F)[C@](F)(C(=O)O)OC([C@H](O)[C@H](O)CO)[C@@H]1NC(C)=O (stereo partly drawn) [Compound 11, (2R,3R)-4-(N-Acetyl) amino-2,4-dideoxy-2,3-difluorosialic acid]",ca. 10 min,397,,1.6,,,,102.3,,,0.53,0.2,5.6,,,
"CC(=O)N[C@@H]1C(N)C(F)[C@](F)(C(N)=O)OC1[C@H](O)[C@H](O)CO (stereo partly drawn) [Compound 9, (2R,3R)-4-Amino-2,4-dideoxy-2,3-difluorosialylamide]",ca. 10 min,1020,,0.118,3.76,15.1,,7.5,,,0.34,2.4,75.5,0.001,0.15,
CCOC(=O)C1=C[C@@H](OC(CC)CC)[C@H](NC(C)=O)[C@@H](N)C1 [Oseltamivir],,,,,,,,,1.7,0.0031,,,,,,IC50 [8]: 0.0226 µM; IC50 ([10]; Influenza A virus): 0.001 µM; IC50 [9]: 0.0002 µM; IC50 (sH1N1/08 wt): 0.003 µM
"CCOC(=O)[C@]1(F)OC([C@H](O)[C@H](O)CO)[C@H](NC(C)=O)C(N)C1F (stereo partly drawn) [Compound 5, Ethyl (2R,3R)-4-Amino-2,4-dideoxy-2,3-difluorosialylate]",,,,0.0076,0.488,0.977,290,125.0,,,,36.4 and 48.6,4.5,0.009,2.27,Cytoprotective effect ([5]; Replicate 1): 290 ng/mL; Relative activity ([5]; Replicate 1): 7.7; Relative activity ([5]; Replicate 2): 3.1
"CC(=O)N[C@@H]1C(N=[N+]=[N-])C(F)[C@](F)(C(=O)O)OC1[C@H](O)[C@H](O)CO (stereo partly drawn) [Compound 8, (2R,3R)-4-Azido-2,4-dideoxy-2,3-difluorosialic acid]",,,,0.104,,,,53.4,,,,2.7,10.6,,,Kd ([1]; 4° C.): 240 µM; fold lower kinetic value (ki/Kd) than 23DFSA ([1]; 4° C.): 26 fold; ki/Kd ([1]; 4° C.): 7.5 and 7.5^b min^−1mM^−1
"CCNC1C(F)[C@](F)(C(=O)O)OC([C@H](O)[C@H](O)CO)[C@@H]1NC(C)=O (stereo partly drawn) [Compound 7, (2R,3R)-4-(N-Ethyl) amino-2,4-dideoxy-2,3-difluorosialic acid]",ca. 10 min,14,61.0,0.122,3.91,3.91,3267,7.8,,,4.1,,72.7,0.001,0.57,Cytoprotective effect ([5]; Replicate 1): 3267 ng/mL; Relative activity ([5]; Replicate 1): 0.67; Relative activity ([5]; Replicate 2): 0.27
"CC(=O)N[C@@H]1C(O)C(F)[C@](F)(C(=O)O)OC1[C@H](O)[C@H](O)CO (stereo partly drawn) [Compound 23DFSA, 2,3-Difluorosialic acid, reference compound]",,,,,4.26,34.1,,,,,,,,0.001,0.07,ki/Kd ([1]; 4° C.): 196 and 196^b min^−1mM^−1
"CCOC(=O)[C@]1(F)OC([C@H](O)[C@H](O)CO)[C@H](NC(C)=O)C(NC(=N)N)C1F (stereo partly drawn) [Compound 13, Ethyl (2R,3R)-4-Guanyl-2,4-dideoxy-2,3-difluorosialylate]",,,,0.0444,0.71,0.71,,1.4,,,,6.3 and 8.3,400.0,0.006,3.13,
"CC(=O)N[C@H]1[C@H]([C@H](O)[C@H](O)CO)OC(C(=O)O)=C[C@@H]1N=C(N)N [Zanamivir, reference compound]",,,369.9,,,,887,568,3.8,0.0019,,1.0,1.0,1.0,1.0,Cytoprotective effect [5]: 2219 ng/mL; Relative activity ([5]; Replicate 1): 1.0; Relative activity ([5]; Replicate 2): 1.0; survival compared to the untreated control group [6]: significantly extended; % weight loss mean +/− SD ([6]; 0.1 mg/kg): 16.73 +/− 2.62%; % weight loss mean +/− SD ([6]; 1 mg/kg): 12.24 +/− 2.34%; IC50 [10]: 0.0022 µM; IC50 [9]: 0.0006 µM; IC50 (sH1N1/08 wt): 0.001 µM; AUC(Lung) (Zanamivir/DFSA-4Gu) ([11]; inhaled or intranasal): 1.07; AUC (in vivo; inhaled or intranasal): 4230 ng·h/mL; half-life (in vivo; inhaled or intranasal): 19.1 min
"CC(=O)N[C@@H]1C(NC(=N)N)C(F)[C@](F)(C(=O)O)OC1[C@H](O)[C@H](O)CO (stereo partly drawn) [Compound 12, (2R,3R)-4-Guanyl-2,4-dideoxy-2,3-difluorosialic acid]",ca. 10 min,9,74,,,,,0.9,2010,0.115,,,,,,"half time for the full reactivation of the inactivated sialidase [1]: 6.7 h; Ki ([1]; 30° C., pH 7.6): 0.07 µM and 0.0704 µM; khyd ([1]; 30° C., pH 7.6): 0.0017 min⁻¹; survival compared to the untreated control group [6]: significantly extended; % weight loss mean +/− SD ([6]; 1 mg/kg): 10.75 +/− 4.87%; IC50 [8]: 0.0066 µM; IC50 (B/Perth wt): 0.054 µM; Cinitial [11]: 4954 ng/mL; Cinitial ([11]; iv): 9480 ng/mL; % weight loss mean +/− SD [7]: 4.72 +/− 2.78%; number of animals remaining [7]: 5; Half life for reactivation (H1N1 OsR): 116 h; ki (H1N1 OsR): 0.075 ± 0.002 min⁻¹; half-life (in vivo; inhaled or intranasal): 17.3 min; half-life (in vivo; iv): 8.3 min"
CC(=O)N[C@@H]1C(NCc2ccccc2)C(F)[C@](F)(C(=O)O)OC1[C@H](O)[C@H](O)CO (stereo partly drawn) [C4 Bn],,306,,,,,,,,,0.61,,,,,"Ki ([1]; 30° C., pH 7.6): 4.08 µM; khyd ([1]; 30° C., pH 7.6): 0.0025 min⁻¹"
